PMC2955234 (Investigational New Drugs, 2009)
Where two headings read alike, the source gives them in different places. Each block holds one compound with its values, some of them ahead of it.

Legend:
[1] = type: in vivo, human
lymphocyte = assay: Drug lymphocyte stimulation test in the two patients with erythema multiforme; type: cell-based, human; conditions: both patients with erythema multiforme of cohort 1
[2] = Pharmacokinetics of sorafenib in plasma; type: in vivo; conditions: human, oral, 400 mg; for Cmax: C max
Dose-limiting toxicity = type: in vivo, human; conditions: in combination with carboplatin AUC 5 mg min mL^−1 and paclitaxel 200 mg/m^2, Japanese patients with advanced NSCLC
[3] = sorafenib at 400 mg twice daily
[4] = Cohort 2, dose-adjusted ratio cycle 2 relative to cycle 1

Structure (SMILES): N.N.O=C([O-])C1(C(=O)[O-])CCC1.[Pt+2] [carboplatin]
effect of sorafenib on the pharmacokinetics [1, 3]: no effect | drug lymphocyte stimulation test result (lymphocyte): negative

Structure (SMILES): CNC(=O)c1cc(Oc2ccc(NC(=O)Nc3ccc(Cl)c(C(F)(F)F)c3)cc2)ccn1 [Sorafenib]
AUC(0-t) ([2]; AUC0–12, Cohort 1, cycle 1, day 2, 400 mg sd (n = 6), geometric mean (% CV)): 18200 ng·h/mL | AUC(0-t) ([2]; AUC0–12, Cohort 2, cycle 1, day 2, 400 mg sd (n = 7), geometric mean (% CV)): 9000 ng·h/mL | AUC(0-t) ([2]; AUC0–12, Cohort 2, cycle 1, day 19, 400 mg od (n = 7), geometric mean (% CV)): 24400 ng·h/mL | AUC(0-t) ([2]; AUC0–12, Cohort 2, cycle 2, day 2, 400 mg sd (n = 6), geometric mean (% CV)): 14600 ng·h/mL | Cmax ([2]; Cohort 1, cycle 1, day 19, 400 mg bid (n = 3), geometric mean (% CV)): 4600 ng/mL | Cmax ([2]; Cohort 2, cycle 1, day 2, 400 mg sd (n = 7), geometric mean (% CV)): 1200 ng/mL | Cmax ([2]; Cohort 2, cycle 1, day 19, 400 mg od (n = 7), geometric mean (% CV)): 3200 ng/mL | Cmax ([2]; Cohort 2, cycle 2, day 19, 400 mg bid (n = 4), geometric mean (% CV)): 5900 ng/mL | half-life ([2]; mean t 1/2, on day 19, across cohorts and cycles): 20.4 to 26.8 h | half-life ([2]; t 1/2, Cohort 1, cycle 1, day 19, 400 mg bid (n = 3), geometric mean (% CV)): 20.4 h | half-life ([2]; t 1/2, Cohort 2, cycle 1, day 19, 400 mg od (n = 7), geometric mean (% CV)): 26.8 h | half-life ([2]; t 1/2, Cohort 2, cycle 2, day 19, 400 mg bid (n = 4), geometric mean (% CV)): 23.9 h | drug lymphocyte stimulation test result (lymphocyte): positive | dose of sorafenib confirmed to be feasible (Dose-limiting toxicity): 400 mg once daily

increases in the AUC and C max values after sorafenib administration [1, 3]: not statistically significant
Structure (SMILES): CC(=O)O[C@H]1C(=O)[C@@]2(C)[C@H]([C@H](OC(=O)c3ccccc3)[C@]3(O)C[C@H](OC(=O)[C@H](O)[C@@H](NC(=O)c4ccccc4)c4ccccc4)C(C)=C1C3(C)C)[C@]1(OC(C)=O)CO[C@@H]1[C@@H](O)[C@@H]2O [6-hydroxy-paclitaxel]

AUC Ratio [90% CI] [1, 4]: 1.05 [0.88–1.25] | C max Ratio [90% CI] [1, 4]: 1.19 [0.80–1.77] | C max Ratio [90% CI] ([1]; Cohort 2, dose-adjusted ratio cycle 3 relative to cycle 1): 1.39 [0.88–2.21] | increases in the AUC and C max values after sorafenib administration [1, 3]: not statistically significant | drug lymphocyte stimulation test result (lymphocyte): negative
Structure (SMILES): CC(=O)O[C@H]1C(=O)[C@@]2(C)[C@H]([C@H](OC(=O)c3ccccc3)[C@]3(O)C[C@H](OC(=O)[C@H](O)[C@@H](NC(=O)c4ccccc4)c4ccccc4)C(C)=C1C3(C)C)[C@]1(OC(C)=O)CO[C@@H]1C[C@@H]2O [Paclitaxel]
